From article PMC6801739, “Antitumor Activity of a Novel Tyrosine Kinase Inhibitor AIU2001 Due to Abrogation of the DNA Damage Repair in Non-Small Cell Lung Cancer Cells” (International Journal of Molecular Sciences, 2019)

Assays:
PKBα = target: T1, PKBα (Homo sapiens, UniProt P31749); experiment: Kinase profiling at 10 μM (Eurofins); type: biochemical; conditions: read-out: Inhibitory activity
T1 construct: purchased Eurofins Pharma Discovery (KinaseProfiler); IC50 values by Reaction Biology Corp
T1 sequence (P31749 whole entry): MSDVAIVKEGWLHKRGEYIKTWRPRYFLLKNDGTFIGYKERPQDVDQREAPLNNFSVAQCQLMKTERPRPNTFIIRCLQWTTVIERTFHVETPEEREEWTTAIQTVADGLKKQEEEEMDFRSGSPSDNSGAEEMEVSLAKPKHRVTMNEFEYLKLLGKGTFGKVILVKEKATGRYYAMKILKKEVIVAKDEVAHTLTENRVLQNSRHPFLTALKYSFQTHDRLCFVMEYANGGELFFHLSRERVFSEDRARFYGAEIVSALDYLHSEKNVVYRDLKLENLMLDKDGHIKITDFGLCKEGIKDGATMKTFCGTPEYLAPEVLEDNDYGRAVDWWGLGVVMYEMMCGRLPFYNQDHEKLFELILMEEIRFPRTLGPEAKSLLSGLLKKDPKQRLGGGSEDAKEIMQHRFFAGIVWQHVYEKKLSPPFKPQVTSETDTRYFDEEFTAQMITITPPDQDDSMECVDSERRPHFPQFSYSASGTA

c-KIT (V560G) [1] = target: T2, c-KIT (V560G) (Homo sapiens, UniProt P10721, V560G); experiment: Kinase profiling at 10 μM (Eurofins); type: biochemical; conditions: read-out: Inhibitory activity
T2 construct: purchased Eurofins Pharma Discovery (KinaseProfiler); IC50 values by Reaction Biology Corp
T2 sequence (P10721 26-976 V560G): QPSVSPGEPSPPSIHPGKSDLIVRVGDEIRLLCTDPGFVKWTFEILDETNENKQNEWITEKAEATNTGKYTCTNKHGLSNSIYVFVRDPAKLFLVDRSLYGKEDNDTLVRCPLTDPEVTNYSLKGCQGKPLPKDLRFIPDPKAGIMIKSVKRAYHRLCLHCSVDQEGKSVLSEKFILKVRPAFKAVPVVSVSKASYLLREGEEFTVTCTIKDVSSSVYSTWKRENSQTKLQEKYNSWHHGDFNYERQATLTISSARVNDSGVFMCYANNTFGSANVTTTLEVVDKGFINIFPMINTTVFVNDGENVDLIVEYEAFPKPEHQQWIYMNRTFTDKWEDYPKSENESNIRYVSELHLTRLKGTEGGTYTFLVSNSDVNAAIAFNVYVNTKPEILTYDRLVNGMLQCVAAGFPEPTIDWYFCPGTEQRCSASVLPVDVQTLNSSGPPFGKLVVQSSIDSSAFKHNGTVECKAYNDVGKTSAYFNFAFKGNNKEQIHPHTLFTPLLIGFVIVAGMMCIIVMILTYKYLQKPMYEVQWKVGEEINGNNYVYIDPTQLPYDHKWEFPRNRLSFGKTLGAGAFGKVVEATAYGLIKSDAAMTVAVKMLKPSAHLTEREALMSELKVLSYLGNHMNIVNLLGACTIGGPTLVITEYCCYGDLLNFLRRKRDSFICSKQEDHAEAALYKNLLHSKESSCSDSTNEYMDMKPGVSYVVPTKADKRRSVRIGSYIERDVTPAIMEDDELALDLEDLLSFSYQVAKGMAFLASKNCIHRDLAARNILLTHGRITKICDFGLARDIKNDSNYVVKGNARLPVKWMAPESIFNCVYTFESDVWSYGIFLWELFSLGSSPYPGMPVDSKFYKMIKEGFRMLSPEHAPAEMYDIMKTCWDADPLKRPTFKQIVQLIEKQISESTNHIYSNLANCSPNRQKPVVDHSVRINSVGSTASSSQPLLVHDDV

FLT3(D835Y) = FLT3(D835Y) (Homo sapiens, UniProt P36888, D835Y); experiment: Kinase profiling at 10 μM (Eurofins); type: biochemical; design: purchased Eurofins Pharma Discovery (KinaseProfiler); IC50 values by Reaction Biology Corp; conditions: read-out: Inhibitory activity
PKCα = target: T3, PKCα (Homo sapiens, UniProt P17252); experiment: Kinase profiling at 10 μM (Eurofins); type: biochemical; conditions: read-out: Inhibitory activity
T3 construct: purchased Eurofins Pharma Discovery (KinaseProfiler); IC50 values by Reaction Biology Corp

A549 cells [2] = experiment: Annexin V/PI flow cytometric analysis of apoptosis; type: cell-based, human; conditions: 10 µM, 48 h
Method: (§1) Annexin V assays were performed according to the manufacturer’s protocol (BD Pharmingen, San Diego, CA, USA). Briefly, 10,000 cells were plated into 60-mm plates and treated with varying concentrations of AIU2001 for 48 h. The cells were harvested and incubated with 4 μL allophycocyanin (APC)-conjugated annexin V (20 μg/mL) and 4 μL PI (50 μg/mL) for 15 min. Fluorescence analyses were performed using flow cytometry (CyFlow Cube 6; Sysmexpartec, Goerlitz, Germany). Cells were classified as early apoptotic (annexin V-positive/PI-negative), late apoptotic/necrotic (annexin V-positive/PI-positive), necrotic/dead (annexin V-negative/PI-positive), and live (annexin V-negative/PI-negative). Flow cytometry data was analyzed using FlowJo software (TreeStar Inc., Ashland, OR, USA).

H1299 cells [3] = experiment: Annexin V/PI flow cytometric analysis of apoptosis; type: cell-based, human; conditions: 10 µM, 48 h
Method: as §1

CDK1/cyclinB = target: T4, CDK1/cyclinB (Homo sapiens, UniProt P06493); experiment: Kinase profiling at 10 μM (Eurofins); type: biochemical; conditions: read-out: Inhibitory activity
T4 construct: purchased Eurofins Pharma Discovery (KinaseProfiler); IC50 values by Reaction Biology Corp

FLT3 = target: T5, FLT3 (Homo sapiens, UniProt P36888); experiment: Kinase profiling at 10 μM (Eurofins); type: biochemical; conditions: read-out: Inhibitory activity
T5 construct: purchased Eurofins Pharma Discovery (KinaseProfiler); IC50 values by Reaction Biology Corp

A549 cells [4] = experiment: qPCR of DNA damage repair genes and STAT5 mRNA; type: cell-based, human; conditions: 24 h
From the text: (§2) RNA was extracted using TRIzol® RNA isolation reagent (ThermoFisher Scientific). RNA was reverse-transcribed into cDNA using the M-MLV reverse transcriptase (Enzynomics, Daejeon, Korea) and RNase inhibitor (Promega, Madison, WI, USA). The sequence of the primers targeting human BRCA1, BRCA2, RAD51, BARD1, XRCC6, and XRCC5 are as follows: BRCA1 sense 5′-[…]-3′, BRCA1 antisense 5′-[…]-3′, BRCA2 sense 5′-[…]-3′, BRCA2 antisense 5′-[…]-3′, RAD51 sense 5′-[…]-3′, RAD51 antisense 5′-[…]-3′, BARD1 sense 5′-[…]-3′, BARD1 antisense 5′-[…]-3′, XRCC6 sense 5′-[…]-3′, XRCC6 antisense 5′-[…]-3′, XRCC5 sense 5′-[…]-3′,and XRCC5 antisense 5′-[…]-3′. β-actin was used as a housekeeping gene for normalization. The cDNA was quantified using real-time PCR with SYBR Green/fluorescein qPCR master mix (ThermoScientific, Carlsbad, CA, USA) on a Lightcycler 96 system (Roche Diagnostics, Mannheim, Germany) according to the manufacturer’s protocol.

H1299 cells [5] = experiment: qPCR of DNA damage repair genes and STAT5 mRNA; type: cell-based, human; conditions: 24 h
From the text: as §2

ROS = target: T6, ROS (Homo sapiens, UniProt P08922); experiment: Kinase profiling at 10 μM (Eurofins); type: biochemical; conditions: read-out: Inhibitory activity
T6 construct: purchased Eurofins Pharma Discovery (KinaseProfiler); IC50 values by Reaction Biology Corp

Molm-13 cells = experiment: CCK-8 cell viability assay; type: cell-based, human; conditions: CCK-8, 5 days
Method: (§3) Supplementary Figure 1. AIU2001 inhibited the proliferation of various cancer cells. (A and B) Human AML cells (Molm-13 and MV4-11; A) and human colorectal cancer (CRC) cells (HCT116/p53+/+ and HCT116/p53-/-; B) were treated with AIU2001 at the indicated concentrations for 5 days and viable cells were evaluated using the CCK-8 assay for AML cells and the MTT assay for CRC cells. *p < 0.05, **p < 0.01, ***p < 0.001 versus respective vehicle controls.
(§4) (also on this page, place not known: ca ncer fo r 02468 Cell viability (%) 0 1 Cell viability (%) *** *** ***) […]
(§5) Cell viability. Cytotoxicity assay of AML cells was performed using cell counting kit-8 (CCD-8; Dojindo, Japan) according to the manufacturer’s procedure. Briefly, MV4-11 or Molm-13 cells were plated in 96-well plates at a density of […] or 1 × 10^3 cells/well in triplicate, treated with AIU2001 or DMSO, and then incubated for 5 days. After adding the CCK-8 solution (10 μl) to each well and incubating the plates for 3 h, absorbance at 450 nm was measured using a microplate reader

MV4-11 cells = experiment: CCK-8 cell viability assay; type: cell-based, human; conditions: CCK-8, 5 days
Method: as §3, §4, §5

DAPK1 = target: T7, DAPK1 (Homo sapiens, UniProt P53355); experiment: Kinase profiling at 10 μM (Eurofins); type: biochemical; conditions: read-out: Inhibitory activity
T7 construct: purchased Eurofins Pharma Discovery (KinaseProfiler); IC50 values by Reaction Biology Corp
T7 sequence (P53355 whole entry): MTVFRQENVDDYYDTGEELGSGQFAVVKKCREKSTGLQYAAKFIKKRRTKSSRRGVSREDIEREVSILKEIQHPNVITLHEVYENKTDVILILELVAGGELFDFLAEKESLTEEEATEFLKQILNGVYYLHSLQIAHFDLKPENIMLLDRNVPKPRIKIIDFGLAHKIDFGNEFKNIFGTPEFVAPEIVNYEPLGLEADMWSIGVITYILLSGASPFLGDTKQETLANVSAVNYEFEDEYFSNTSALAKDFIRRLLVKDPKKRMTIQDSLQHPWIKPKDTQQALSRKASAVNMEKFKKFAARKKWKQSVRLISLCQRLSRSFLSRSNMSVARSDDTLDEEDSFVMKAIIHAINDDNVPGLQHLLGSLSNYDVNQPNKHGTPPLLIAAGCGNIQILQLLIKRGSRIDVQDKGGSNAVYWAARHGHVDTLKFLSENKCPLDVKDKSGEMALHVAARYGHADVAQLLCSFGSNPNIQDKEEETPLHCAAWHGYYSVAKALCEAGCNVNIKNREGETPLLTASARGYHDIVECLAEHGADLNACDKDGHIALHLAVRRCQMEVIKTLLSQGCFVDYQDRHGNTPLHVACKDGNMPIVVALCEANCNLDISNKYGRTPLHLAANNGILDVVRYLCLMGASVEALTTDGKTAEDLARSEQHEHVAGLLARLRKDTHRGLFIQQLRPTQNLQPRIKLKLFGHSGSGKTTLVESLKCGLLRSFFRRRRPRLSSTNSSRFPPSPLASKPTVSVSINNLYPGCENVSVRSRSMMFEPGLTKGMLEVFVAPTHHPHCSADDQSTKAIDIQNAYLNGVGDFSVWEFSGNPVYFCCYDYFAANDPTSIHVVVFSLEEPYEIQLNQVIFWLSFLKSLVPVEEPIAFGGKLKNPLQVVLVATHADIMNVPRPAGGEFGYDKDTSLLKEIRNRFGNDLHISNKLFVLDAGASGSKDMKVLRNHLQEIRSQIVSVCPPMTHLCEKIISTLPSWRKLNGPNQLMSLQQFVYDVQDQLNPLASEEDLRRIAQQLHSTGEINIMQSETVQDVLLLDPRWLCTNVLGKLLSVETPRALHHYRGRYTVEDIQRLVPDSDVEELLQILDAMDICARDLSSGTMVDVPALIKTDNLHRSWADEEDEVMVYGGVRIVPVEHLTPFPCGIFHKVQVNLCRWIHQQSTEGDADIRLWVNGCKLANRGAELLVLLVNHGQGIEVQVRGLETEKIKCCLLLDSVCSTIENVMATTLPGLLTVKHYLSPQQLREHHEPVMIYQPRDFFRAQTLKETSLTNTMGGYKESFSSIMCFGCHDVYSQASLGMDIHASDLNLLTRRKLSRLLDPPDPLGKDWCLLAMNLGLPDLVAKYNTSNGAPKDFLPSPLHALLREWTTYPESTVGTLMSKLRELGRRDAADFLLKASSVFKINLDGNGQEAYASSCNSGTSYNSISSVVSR

FLT1 = target: T8, FLT1 (Homo sapiens, UniProt P17948); experiment: Kinase profiling at 10 μM (Eurofins); type: biochemical; conditions: read-out: Inhibitory activity
T8 construct: purchased Eurofins Pharma Discovery (KinaseProfiler); IC50 values by Reaction Biology Corp
T8 sequence (P17948 27-1338): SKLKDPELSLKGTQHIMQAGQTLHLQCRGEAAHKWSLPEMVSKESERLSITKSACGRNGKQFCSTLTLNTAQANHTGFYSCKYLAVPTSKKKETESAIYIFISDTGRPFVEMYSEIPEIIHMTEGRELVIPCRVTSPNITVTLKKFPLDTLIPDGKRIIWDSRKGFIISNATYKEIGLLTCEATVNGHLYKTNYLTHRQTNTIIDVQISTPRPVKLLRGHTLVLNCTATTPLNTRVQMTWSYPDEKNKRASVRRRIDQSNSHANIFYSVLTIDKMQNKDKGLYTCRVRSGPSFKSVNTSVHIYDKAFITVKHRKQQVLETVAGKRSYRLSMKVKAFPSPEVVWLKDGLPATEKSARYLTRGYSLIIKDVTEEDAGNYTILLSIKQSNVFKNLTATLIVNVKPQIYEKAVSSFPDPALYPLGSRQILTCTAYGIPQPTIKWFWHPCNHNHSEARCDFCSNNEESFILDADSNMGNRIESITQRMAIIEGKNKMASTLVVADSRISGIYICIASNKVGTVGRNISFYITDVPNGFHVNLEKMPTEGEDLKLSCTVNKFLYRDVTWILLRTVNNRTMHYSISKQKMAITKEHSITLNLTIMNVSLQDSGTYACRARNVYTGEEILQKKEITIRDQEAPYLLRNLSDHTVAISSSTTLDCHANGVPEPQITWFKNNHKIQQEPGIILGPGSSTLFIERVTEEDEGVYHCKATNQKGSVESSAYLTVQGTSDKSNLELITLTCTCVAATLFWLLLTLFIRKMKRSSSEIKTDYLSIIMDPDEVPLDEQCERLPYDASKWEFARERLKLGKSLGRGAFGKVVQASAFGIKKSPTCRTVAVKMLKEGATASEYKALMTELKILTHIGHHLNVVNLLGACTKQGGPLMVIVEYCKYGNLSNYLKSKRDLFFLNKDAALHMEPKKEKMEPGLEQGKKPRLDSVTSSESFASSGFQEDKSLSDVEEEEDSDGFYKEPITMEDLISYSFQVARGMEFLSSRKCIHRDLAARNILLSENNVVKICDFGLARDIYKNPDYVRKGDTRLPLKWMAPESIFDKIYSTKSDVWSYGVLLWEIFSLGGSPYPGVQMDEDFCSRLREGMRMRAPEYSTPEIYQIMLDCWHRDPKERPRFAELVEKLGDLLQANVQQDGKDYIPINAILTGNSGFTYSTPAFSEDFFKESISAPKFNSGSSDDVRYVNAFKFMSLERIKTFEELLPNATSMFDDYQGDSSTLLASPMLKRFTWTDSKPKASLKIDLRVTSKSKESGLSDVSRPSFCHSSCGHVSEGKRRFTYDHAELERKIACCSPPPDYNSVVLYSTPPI

c-KIT (V560G) [6] = target: T2, c-KIT (V560G); experiment: In vitro kinase assay, IC50 (Reaction Biology Corp.); type: biochemical

- inhibition at 10 µM (PKBα): 24%
- inhibition at 10 µM (c-KIT (V560G) [1]): ≥ 75%
- inhibition at 10 µM (FLT3(D835Y)): ≥ 75%
- inhibition at 10 µM (PKCα): 9%
- inhibition at 10 µM (CDK1/cyclinB): 38%
- inhibition at 10 µM (FLT3): ≥ 75%
- inhibition at 10 µM (ROS): 2%
- inhibition at 10 µM (DAPK1): 12%
- inhibition at 10 µM (FLT1): 44%
- IC50 (c-KIT (V560G) [6]): 53.4 nM
SMILES: Brc1ccc(-c2cnc(Nc3cccc4ccccc34)o2)cc1 [AIU2001, 5-(4-bromophenyl)-N-(naphthalen-1-yl) oxazol-2-amine]
- Increase in early and late apoptotic cells (A549 cells [2]): 4.2 fold
- Increase in early and late apoptotic cells (H1299 cells [3]): 6.7 fold
- Expression level of STAT5 mRNA (A549 cells [4]): downregulated
- mRNA levels of HR (BRCA1, BRCA2, BARD1, RAD51) and NHEJ (XRCC5, XRCC6) genes (A549 cells [4]): reduced the mRNA levels
- Expression level of STAT5 mRNA (H1299 cells [5]): downregulated
- mRNA levels of HR (BRCA1, BRCA2, BARD1, RAD51) and NHEJ (XRCC5, XRCC6) genes (H1299 cells [5]): reduced the mRNA levels
- Growth inhibition (Molm-13 cells): inhibited the growth
- Growth inhibition (MV4-11 cells): inhibited the growth
